# Results reported in patent US7569547B2, “Inhibiting furin with polybasic peptides” (Board of Supervisors of Louisiana State University and …, priority 2001, dated 2009).
# Assays:
# PC1 = biological target: T1, PC1 (Mus musculus, UniProt P63239); test: biochemical; format: biochemical
# T1 construct: made in house
# T1 sequence (P63239 111-753): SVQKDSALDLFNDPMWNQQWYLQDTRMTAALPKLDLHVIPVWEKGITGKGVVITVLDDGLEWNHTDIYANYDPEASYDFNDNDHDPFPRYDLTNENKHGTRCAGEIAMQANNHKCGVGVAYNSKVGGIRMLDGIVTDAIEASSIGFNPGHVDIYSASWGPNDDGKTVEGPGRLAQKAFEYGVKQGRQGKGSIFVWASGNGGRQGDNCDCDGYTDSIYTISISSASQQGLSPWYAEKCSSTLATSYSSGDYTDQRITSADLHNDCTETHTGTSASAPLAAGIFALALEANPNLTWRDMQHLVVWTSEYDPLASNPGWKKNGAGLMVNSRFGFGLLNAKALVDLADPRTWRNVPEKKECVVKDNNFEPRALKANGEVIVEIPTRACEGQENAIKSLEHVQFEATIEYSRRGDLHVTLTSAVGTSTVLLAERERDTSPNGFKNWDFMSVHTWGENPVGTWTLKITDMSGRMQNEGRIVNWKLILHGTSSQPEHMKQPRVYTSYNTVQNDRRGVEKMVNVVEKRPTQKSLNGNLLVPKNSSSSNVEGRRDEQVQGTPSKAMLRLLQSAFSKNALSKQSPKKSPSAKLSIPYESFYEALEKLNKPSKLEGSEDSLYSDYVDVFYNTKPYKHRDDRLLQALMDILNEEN
# Experimental: (§1) The proprotein convertases PC1 and PC2 were prepared by ion exchange chromatography as described in G. Frenette et al., Biochim. Biophys. Acta., vol. 1334, pp. 109-115 (1997).
# (§2) Enzyme Assays and Hexapeptide Library Screening. Enzyme assays for PC1 and PC2 were performed at pH 5.0 using pERTKR-MCA (Peptides International Inc., Louisville, Ky.) as described in E. Apletalina et al., J. Biol. Chem., vol. 273, pp. 26589-26595 (1998). The assay for furin was performed using the same substrate at pH 7.0 in 100 mM HEPES, 5 mM CaCl2, 0.1% Brij 35. All assays were performed at 37° C. in a 96 well fluorometer (Labsystems) at an excitation wavelength of 380 nm with emission monitored at a wavelength of 460 nm. The total volume was 50 μL. Unless otherwise stated, the final substrate concentration for all assays was 200 μM. When used in a particular experiment, the inhibitory peptides were pre-incubated with enzyme for 30 min at room temperature prior to addition of substrate. All assays were performed in duplicate or triplicate.
# PC2 [1] = biological target: T2, PC2 (Mus musculus, UniProt P21661)
# T2 sequence (P21661 109-637): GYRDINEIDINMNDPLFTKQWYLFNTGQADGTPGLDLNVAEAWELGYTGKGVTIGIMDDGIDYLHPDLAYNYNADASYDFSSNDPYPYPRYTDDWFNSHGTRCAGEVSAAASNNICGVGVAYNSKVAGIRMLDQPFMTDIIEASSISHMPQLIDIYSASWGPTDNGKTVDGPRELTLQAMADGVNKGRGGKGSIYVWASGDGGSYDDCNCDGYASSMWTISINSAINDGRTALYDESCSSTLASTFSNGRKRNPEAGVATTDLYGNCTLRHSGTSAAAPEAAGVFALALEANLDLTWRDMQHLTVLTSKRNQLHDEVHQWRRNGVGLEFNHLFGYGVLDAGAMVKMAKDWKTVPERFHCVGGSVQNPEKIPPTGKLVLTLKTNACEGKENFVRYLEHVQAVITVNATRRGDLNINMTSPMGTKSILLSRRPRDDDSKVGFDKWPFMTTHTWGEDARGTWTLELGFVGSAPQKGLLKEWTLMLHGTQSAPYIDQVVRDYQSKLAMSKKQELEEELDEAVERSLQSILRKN
# furin = biological target: T3, furin (Mus musculus, UniProt P23188); test: Cleavage of polyarginines by furin, HPLC analysis; format: biochemical
# T3 construct: truncated N-terminally to the transmembrane domain at His^711 using PCR; myc (C, cleaved yes); hexa-His (C, cleaved yes); made in house; host or cells: DG44 CHO cells, conditioned medium
# T3 sequence (P23188 108-714 limits assumed): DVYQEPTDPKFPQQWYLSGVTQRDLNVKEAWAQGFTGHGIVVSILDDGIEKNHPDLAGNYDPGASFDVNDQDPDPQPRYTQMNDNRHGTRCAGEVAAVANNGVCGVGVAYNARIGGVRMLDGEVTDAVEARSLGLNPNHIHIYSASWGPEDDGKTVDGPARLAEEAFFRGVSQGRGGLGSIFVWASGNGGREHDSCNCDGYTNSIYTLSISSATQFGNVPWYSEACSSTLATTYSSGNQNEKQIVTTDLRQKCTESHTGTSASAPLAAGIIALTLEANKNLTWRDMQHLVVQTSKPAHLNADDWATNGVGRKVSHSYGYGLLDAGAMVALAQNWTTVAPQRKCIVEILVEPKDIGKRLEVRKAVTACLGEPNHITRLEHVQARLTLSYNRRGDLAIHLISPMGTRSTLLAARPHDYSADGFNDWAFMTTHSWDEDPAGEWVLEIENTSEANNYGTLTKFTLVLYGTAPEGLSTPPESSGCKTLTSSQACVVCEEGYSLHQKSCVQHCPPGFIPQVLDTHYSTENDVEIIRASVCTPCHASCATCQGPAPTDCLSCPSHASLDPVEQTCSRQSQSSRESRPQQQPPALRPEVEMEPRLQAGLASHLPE
# Experimental: Absorbance was monitored at 214 nm. Cleavage products were identified by comparison to polyarginine standards.
# Cleavage of Nona-L-arginine (SEQ ID NO 13) and Hexa-L-arginine (SEQ ID NO 14) by Furin. FIGS. 10(a) through (h) depict the cleavage of nona-L-arginine (SEQ ID NO 13) and hexa-L-arginine (SEQ ID NO 14) by furin. Furin (FIGS. (10(b), (c), (d), (e), and (g)) or buffer (FIGS. 10(f) and (h) was incubated with nona-L-arginine (SEQ ID NO 13) (FIGS. 10(b), (c), (d), (e), and (f) or hexa-L-arginine (SEQ ID NO 14) (FIGS. (10(g) and (h) at 37° C. for 0 min (FIG. (10(b)), 40 min (FIG. 10(c)), 6 h (FIG. 10(d)), or 24 h (FIGS. 10(e), (f), (g), and (h) prior to separation by HPLC as described in the experimental procedures. In FIG. 10(a) the simple separation of a standard mixture polyarginines (without enzyme) is shown; the number of residues per poly-L-arginine is indicated by the positions of the arrows at the tops of FIGS. 10(a) and (e).
# PC2 [2] = biological target: T2, PC2; test: PC2 enzyme assay, hydrolysis of pERTKR-MCA at pH 5.0; format: biochemical; parameters: made in house; details: data not shown
# Experimental: as §1, §2
# [3] = system: Pseudomonas exotoxin A (PEA) in HEK293 cells; test: Protection of HEK293 cells from death caused by Pseudomonas exotoxin A (WST); format: cell-based, human
# Source text: Pseudomonas exotoxin A (PEA) must be cleaved by furin at the cell surface to gain entry into a cell, which typically causes cell death. […] We inferred that the D6R blocked the cleavage of PEA by furin, thus preventing its activation.
compound,measurement,setting,value
N=C(N)NCCC[C@H](NC(=O)[C@H](CCCNC(=N)N)NC(=O)[C@H](CCCNC(=N)N)NC(=O)[C@H](CCCNC(=N)N)NC(=O)[C@H](CCCNC(=N)N)NC(=O)[C@H](CCCNC(=N)N)NC(=O)[C@H](CCCNC(=N)N)NC(=O)[C@H](CCCNC(=N)N)NC(=O)[C@@H](N)CCCNC(=N)N)C(=O)O [Nona-L-arginine],Ki,PC1,12 ± 2.5 µM
same,cleavage by PC2,PC2 [1],essentially no cleavage
same,time at which cleavage by furin was first observed,"furin; 200 μM peptide, 1.7 μM furin, 37° C.",~40 min
same,original peptide remaining,"furin; after four hours with furin, 37° C.",essentially none
N=C(N)NCCC[C@H](NC(=O)[C@H](CCCNC(=N)N)NC(=O)[C@H](CCCNC(=N)N)NC(=O)[C@H](CCCNC(=N)N)NC(=O)[C@H](CCCNC(=N)N)NC(=O)[C@@H](N)CCCNC(=N)N)C(=O)O [Hexa-L-arginine],Ki,PC1,3.9 ± 0.62 µM
same,effect on PC2 activity,PC2 [2],Stimulates PC2 Activity
same,cleavage by furin,furin; after 24 hours incubation,partial digestion
same,cleavage by furin,furin; after six hours incubation,essentially no cleavage
N=C(N)NCCC[C@@H](NC(=O)[C@H](N)CCCN=C(N)N)C(=O)N[C@H](CCCNC(=N)N)C(=O)N[C@H](CCCNC(=N)N)C(=O)N[C@H](CCCNC(=N)N)C(=O)N[C@H](CCCN=C(N)N)C(=O)O [Hexa-D-arginine],Ki,PC1,13 ± 0.25 µM
same,effect on PC2 activity,PC2 [2],no stimulatory or inhibitory effect
same,amount of WST (absorbance),"[3]; HEK293, 1 μM D6R + 10 ng/mL PEA, 51 hours",0.52 ± 0.04
same,amount of WST (absorbance),"[3]; HEK293, 1 μM D6R + 10 ng/mL PEA, 76 hours",0.85 ± 0.02
same,amount of WST (absorbance),"[3]; HEK293, 1 μM D6R + 10 ng/mL PEA, 86 hours",0.83 ± 0.02
same,amount of WST (absorbance),"[3]; HEK293, 1 μM D6R + 10 ng/mL PEA, 96 hours",0.56 ± 0.04
same,amount of WST (absorbance),"[3]; HEK293, 10 μM D6R + 10 ng/mL PEA, 51 hours",0.54 ± 0.07
same,amount of WST (absorbance),"[3]; HEK293, 10 μM D6R + 10 ng/mL PEA, 76 hours",0.73 ± 0.05
same,amount of WST (absorbance),"[3]; HEK293, 10 μM D6R + 10 ng/mL PEA, 86 hours",0.71 ± 0.02
same,amount of WST (absorbance),"[3]; HEK293, 10 μM D6R + 10 ng/mL PEA, 96 hours",0.67 ± 0.01
same,amount of WST (absorbance),"[3]; HEK293, 100 μM D6R + 10 ng/mL PEA, 51 hours",0.51 ± 0.04
same,amount of WST (absorbance),"[3]; HEK293, 100 μM D6R + 10 ng/mL PEA, 76 hours",0.78 ± 0.03
same,amount of WST (absorbance),"[3]; HEK293, 100 μM D6R + 10 ng/mL PEA, 86 hours",0.61 ± 0.06
same,amount of WST (absorbance),"[3]; HEK293, 100 μM D6R + 10 ng/mL PEA, 96 hours",0.55 ± 0.02
same,effect on cell death caused by PEA,"[3]; HEK293 cells, 10 ng/mL PEA, 1 μM final concentration",reduced the cell death caused by PEA
same,protection of cells from killing by exotoxin,"[3]; preliminary data, summary statement",able to protect cells from killing
same,cleavage by furin,furin; after 24 hours incubation,essentially no cleavage
